According to publication PMC10763615, “Identification and engineering of potent cyclic peptides with selective or promiscuous binding through biochemical profiling and bioinformatic data analysis” (RSC Chemical Biology, 2023):
Positions of bridges follow the written chain, without caps; N, C: chain ends. Residues, ends and D or L forms follow the SMILES beside them.

Tests used:
Format in all cases: binding
FGF-R4 ECD = target: T1, FGF-R4 ECD (Homo sapiens, UniProt P22455); assay: single concentration BLI of crude peptides; conditions: crude T18 selection 1 (1:1:1) peptides, single concentration BLI (Table S4); read-out: KD (4)
T1 construct: DNA constructs for the extracellular domain (ECD) of human FGF-; HPC4 (C); made in house; host or cells: HEK 293-6E
T1 sequence (P22455 22-369 limits assumed): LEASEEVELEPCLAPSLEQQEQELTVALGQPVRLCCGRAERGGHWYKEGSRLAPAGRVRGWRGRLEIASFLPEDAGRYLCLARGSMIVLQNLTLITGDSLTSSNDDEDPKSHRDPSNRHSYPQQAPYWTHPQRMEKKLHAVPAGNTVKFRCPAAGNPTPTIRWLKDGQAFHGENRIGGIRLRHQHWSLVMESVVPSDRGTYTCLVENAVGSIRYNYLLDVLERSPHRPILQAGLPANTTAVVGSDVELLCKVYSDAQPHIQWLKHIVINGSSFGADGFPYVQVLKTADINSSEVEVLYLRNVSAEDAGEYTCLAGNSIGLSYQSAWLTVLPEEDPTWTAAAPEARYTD
Procedure: (§1) KD affinity binding measurements were obtained by biolayer interferometry (BLI) instruments (Fortebio Octet HTX, or Sartorius Octet RH16 using either 8 or 16 channel mode.
For single concentration binding experiments, 50 μM peptide stocks in folding buffer were diluted 1:50 in mRNA display selection buffer (PBS pH7.4 supplemented with 0.05% Tween-20 and 0.01% BSA) in either a 96 well black plate, or a 384 well tilted bottom microplate (ForteBio). Biotinylated FGF-R protein was loaded onto Streptavidin-functionalised biosensors (ForteBio) and immersed into ~1 μM peptide to obtain association kinetics curves. Dissociation kinetics curves were obtained by subsequent immersion of ligand-associated loaded sensors into a 1:50 dilution of folding buffer in mRNA display selection buffer. Fitted KD data was adjusted for concentration as determined by UPLC-CAD. […]

FGF-R3C ECD = target: T2, FGF-R3C ECD (Homo sapiens, UniProt P22607); assay: biochemical; set-up: DNA constructs for the extracellular domain (ECD) of human FGF-; HPC4 (C); made in house; host or cells: HEK 293-6E
T2 sequence (P22607 23-375 limits assumed): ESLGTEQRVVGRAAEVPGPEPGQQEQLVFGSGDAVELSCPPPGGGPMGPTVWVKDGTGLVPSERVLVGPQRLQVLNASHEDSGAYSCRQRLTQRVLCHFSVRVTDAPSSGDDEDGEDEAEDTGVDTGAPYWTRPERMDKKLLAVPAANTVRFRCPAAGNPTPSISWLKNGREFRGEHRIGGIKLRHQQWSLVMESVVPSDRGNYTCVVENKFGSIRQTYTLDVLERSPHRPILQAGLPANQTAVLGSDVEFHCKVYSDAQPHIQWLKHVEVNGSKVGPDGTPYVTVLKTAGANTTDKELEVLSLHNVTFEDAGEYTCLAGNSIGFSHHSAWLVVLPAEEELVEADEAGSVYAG
Procedure: as §1
(§2) For single concentration binding experiments, 50 μM peptide stocks in folding buffer were diluted 1:50 in mRNA display selection buffer (PBS pH7.4 supplemented with 0.05% Tween-20 and 0.01% BSA) in either a 96 well black plate, or a 384 well tilted bottom microplate (ForteBio). Biotinylated FGF-R protein was loaded onto Streptavidin-functionalised biosensors (ForteBio) and immersed into ~1 μM peptide to obtain association kinetics curves. Dissociation kinetics curves were obtained by subsequent immersion of ligand-associated loaded sensors into a 1:50 dilution of folding buffer in mRNA display selection buffer. Fitted KD data was adjusted for concentration as determined by UPLC-CAD.
(§3) For accurate multi-concentration KD determination, dilution series of each peptide were made, and association and dissociation kinetics curves were obtained as above for each concentration to fit a multi-point KD binding model. Data collection and analysis was performed using the Octet Instrument Control […]
(§4) concentration assay kinetics curves shown in supplementary Figure S 19-24.

FGF-R1C ECD = target: T3, FGF-R1C ECD (Homo sapiens, UniProt P11362); assay: biochemical; set-up: DNA constructs for the extracellular domain (ECD) of human FGF-; HPC4 (C); made in house; host or cells: HEK 293-6E
T3 sequence (P11362 22-376 limits assumed): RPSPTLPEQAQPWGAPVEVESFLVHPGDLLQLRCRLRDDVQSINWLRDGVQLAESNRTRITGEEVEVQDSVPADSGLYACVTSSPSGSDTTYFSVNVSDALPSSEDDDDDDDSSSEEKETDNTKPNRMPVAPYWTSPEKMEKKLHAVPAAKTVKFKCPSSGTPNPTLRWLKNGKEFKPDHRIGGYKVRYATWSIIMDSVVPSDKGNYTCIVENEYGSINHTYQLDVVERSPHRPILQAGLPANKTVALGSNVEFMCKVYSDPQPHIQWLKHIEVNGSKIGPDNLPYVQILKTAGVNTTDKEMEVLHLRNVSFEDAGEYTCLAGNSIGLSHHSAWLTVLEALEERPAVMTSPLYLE
Procedure: as §1, §2, §3, §4

**Q.** Which results are given for CC[C@H](C)[C@@H]1NC(=O)[C@H](CCCCN)NC(=O)[C@H](Cc2ccc(O)cc2)NC(=O)[C@H](Cc2ccc(O)cc2)NC(=O)[C@H](Cc2c[nH]cn2)NC(=O)[C@H](Cc2c[nH]c3ccccc23)NC(=O)[C@H](CC(C)C)NC(=O)[C@@H](NC(=O)[C@H](CCSC)NC(C)=O)CSSC[C@@H](C(=O)NCC(=O)N[C@@H](CO)C(=O)NCC(=O)N[C@@H](CO)C(=O)N[C@@H](CC(=O)O)C(=O)N[C@@H](Cc2ccc(O)cc2)C(=O)N[C@@H](CCCCN)C(=O)N[C@@H](CC(=O)O)C(=O)N[C@@H](CC(=O)O)C(=O)N[C@@H](CC(=O)O)C(=O)N[C@@H](CC(=O)O)C(=O)N[C@@H](CCCCN)C(N)=O)NC(=O)[C@H](CCCCN)NC(=O)[C@H](CCC(N)=O)NC(=O)[C@H](CCCNC(=N)N)NC(=O)[C@H](CCCNC(=N)N)NC(=O)[C@H](Cc2ccccc2)NC1=O (Ac-MCLWHYYKIFRRQKCGSGSDYKDDDDK-NH2; disulfide 2-15)?
**A.** Kd (FGF-R4 ECD): 8 nM; Kd (FGF-R3C ECD): > 10000 nM; Kd (FGF-R1C ECD): 96 nM

**Q.** Which results are given for CC[C@H](C)[C@@H]1NC(=O)[C@H](Cc2c[nH]cn2)NC(=O)[C@@H](NC(=O)[C@H](CCSC)NC(C)=O)CSSC[C@@H](C(=O)NCC(=O)N[C@@H](CO)C(=O)NCC(=O)N[C@@H](CO)C(=O)N[C@@H](CC(=O)O)C(=O)N[C@@H](Cc2ccc(O)cc2)C(=O)N[C@@H](CCCCN)C(=O)N[C@@H](CC(=O)O)C(=O)N[C@@H](CC(=O)O)C(=O)N[C@@H](CC(=O)O)C(=O)N[C@@H](CC(=O)O)C(=O)N[C@@H](CCCCN)C(N)=O)NC(=O)[C@H](C(C)C)NC(=O)[C@H](Cc2ccc(O)cc2)NC(=O)[C@H](Cc2c[nH]cn2)NC(=O)[C@H](Cc2ccccc2)NC(=O)[C@H](CCC(N)=O)NC(=O)[C@H](CC(N)=O)NC(=O)[C@H](CC(N)=O)NC(=O)[C@H](Cc2ccccc2)NC(=O)[C@H](Cc2ccc(O)cc2)NC(=O)[C@H](Cc2c[nH]c3ccccc23)NC1=O (Ac-MCHIWYFNNQFHYVCGSGSDYKDDDDK-NH2; disulfide 2-15)?
**A.** Kd (FGF-R4 ECD): 6 nM; Kd (FGF-R1C ECD): > 10000 nM

**Q.** Which results are given for CSCC[C@H](NC(C)=O)C(=O)N[C@H]1CSSC[C@@H](C(=O)NCC(=O)N[C@@H](CO)C(=O)NCC(=O)N[C@@H](CO)C(=O)N[C@@H](CCC(=O)O)C(=O)N[C@@H](CCC(=O)O)C(=O)NCC(=O)N[C@@H](CO)C(=O)NCC(=O)N[C@@H](CO)C(=O)N[C@@H](CC(=O)O)C(=O)N[C@@H](Cc2ccc(O)cc2)C(=O)N[C@@H](CCCCN)C(=O)N[C@@H](CC(=O)O)C(=O)N[C@@H](CC(=O)O)C(=O)N[C@@H](CC(=O)O)C(=O)N[C@@H](CC(=O)O)C(=O)N[C@@H](CCCCN)C(N)=O)NC(=O)[C@H](CCCNC(=N)N)NC(=O)[C@H](CO)NC(=O)[C@H](Cc2c[nH]cn2)NC(=O)[C@H](CCCCN)NC(=O)[C@H](CC(C)C)NC(=O)[C@H](Cc2c[nH]c3ccccc23)NC(=O)[C@H](CC(C)C)NC(=O)[C@H](CCCCN)NC(=O)[C@H](Cc2ccc(O)cc2)NC(=O)[C@H](Cc2ccc(O)cc2)NC(=O)[C@H](C(C)C)NC(=O)[C@H](C)NC1=O (Ac-MCAVYYKLWLKHSRCGSGSEEGSGSDYKDDDDK-NH2; disulfide 2-15)?
**A.** Kd (FGF-R4 ECD): 7 nM; Kd (FGF-R1C ECD): > 10000 nM

**Q.** How did the Kd (FGF-R3C ECD) turn out when CC[C@H](C)[C@@H]1NC(=O)[C@H](CCC(=O)O)NC(=O)[C@H](CCCNC(=N)N)NC(=O)[C@@H](NC(=O)[C@H](CCSC)NC(C)=O)CSSC[C@@H](C(=O)NCC(=O)N[C@@H](CO)C(=O)NCC(=O)N[C@@H](CO)C(=O)N[C@@H](CC(=O)O)C(=O)N[C@@H](Cc2ccc(O)cc2)C(=O)N[C@@H](CCCCN)C(=O)N[C@@H](CC(=O)O)C(=O)N[C@@H](CC(=O)O)C(=O)N[C@@H](CC(=O)O)C(=O)N[C@@H](CC(=O)O)C(=O)N[C@@H](CCCCN)C(N)=O)NC(=O)[C@H](Cc2ccccc2)NC(=O)[C@H](C)NC(=O)[C@H](CCCNC(=N)N)NC(=O)[C@H](Cc2ccc(O)cc2)NC(=O)[C@H](CC(C)C)NC(=O)[C@H](CCC(N)=O)NC(=O)[C@H](Cc2c[nH]c3ccccc23)NC(=O)[C@H](Cc2ccc(O)cc2)NC(=O)[C@H](CCCNC(=N)N)NC1=O (Ac-MCREIRYWQLYRAFCGSGSDYKDDDDK-NH2; disulfide 2-15) was run?
**A.** The Kd was over 10000 nM.

**Q.** And the Kd (FGF-R1C ECD)?
**A.** Its Kd is over 10000 nM.

**Q.** For CC[C@H](C)[C@@H]1NC(=O)[C@H](Cc2c[nH]cn2)NC(=O)[C@H](CCCNC(=N)N)NC(=O)[C@H](CCCCN)NC(=O)[C@@H](NC(=O)[C@H](CCSC)NC(C)=O)CSSC[C@@H](C(=O)NCC(=O)N[C@@H](CO)C(=O)NCC(=O)N[C@@H](CO)C(=O)N[C@@H](CCC(=O)O)C(=O)N[C@@H](CCC(=O)O)C(=O)NCC(=O)N[C@@H](CO)C(=O)NCC(=O)N[C@@H](CO)C(=O)N[C@@H](CC(=O)O)C(=O)N[C@@H](Cc2ccc(O)cc2)C(=O)N[C@@H](CCCCN)C(=O)N[C@@H](CC(=O)O)C(=O)N[C@@H](CC(=O)O)C(=O)N[C@@H](CC(=O)O)C(=O)N[C@@H](CC(=O)O)C(=O)N[C@@H](CCCCN)C(N)=O)NC(=O)[C@H](C(C)C)NC(=O)[C@H](Cc2ccc(O)cc2)NC(=O)[C@H](CC(C)C)NC(=O)[C@H](CCC(N)=O)NC(=O)[C@H](Cc2c[nH]c3ccccc23)NC(=O)[C@H](Cc2ccc(O)cc2)NC(=O)[C@H](CCCNC(=N)N)NC1=O (Ac-MCKRHIRYWQLYVCGSGSEEGSGSDYKDDDDK-NH2; disulfide 2-14), which Kd (FGF-R3C ECD) is on record?
**A.** The Kd was 838 nM.

**Q.** And the Kd (FGF-R1C ECD)?
**A.** The Kd was 265 nM.

**Q.** CC[C@H](C)[C@@H]1NC(=O)[C@H](CCC(=O)O)NC(=O)[C@H](Cc2ccc(O)cc2)NC(=O)[C@@H](NC(=O)[C@H](CCSC)NC(C)=O)CSSC[C@@H](C(=O)NCC(=O)N[C@@H](CO)C(=O)NCC(=O)N[C@@H](CO)C(=O)N[C@@H](CC(=O)O)C(=O)N[C@@H](Cc2ccc(O)cc2)C(=O)N[C@@H](CCCCN)C(=O)N[C@@H](CC(=O)O)C(=O)N[C@@H](CC(=O)O)C(=O)N[C@@H](CC(=O)O)C(=O)N[C@@H](CC(=O)O)C(=O)N[C@@H](CCCCN)C(N)=O)NC(=O)[C@H](C(C)C)NC(=O)[C@H](CCCNC(=N)N)NC(=O)[C@H](CCC(N)=O)NC(=O)[C@H](CC(C)C)NC(=O)[C@H](CCCCN)NC(=O)[C@H](Cc2ccc(O)cc2)NC(=O)[C@H](Cc2c[nH]c3ccccc23)NC(=O)[C@H]([C@@H](C)CC)NC1=O (Ac-MCYEIIWYKLQRVCGSGSDYKDDDDK-NH2; disulfide 2-14) was tested. Which Kd (FGF-R3C ECD) did it give?
**A.** The Kd was over 10000 nM.

**Q.** What about the Kd (FGF-R1C ECD) of the same compound?
**A.** The Kd was over 10000 nM.

**Q.** Which results are given for CC[C@H](C)[C@@H]1NC(=O)CNC(=O)[C@H]([C@@H](C)O)NC(=O)[C@H](CO)NC(=O)[C@H]([C@@H](C)CC)NC(=O)[C@H](CC(N)=O)NC(=O)[C@H](CCCCN)NC(=O)[C@H](Cc2ccc(O)cc2)NC(=O)[C@@H](NC(=O)[C@H](CCSC)NC(C)=O)CSSC[C@@H](C(=O)NCC(=O)N[C@@H](CO)C(=O)NCC(=O)N[C@@H](CO)C(=O)N[C@@H](CC(=O)O)C(=O)N[C@@H](Cc2ccc(O)cc2)C(=O)N[C@@H](CCCCN)C(=O)N[C@@H](CC(=O)O)C(=O)N[C@@H](CC(=O)O)C(=O)N[C@@H](CC(=O)O)C(=O)N[C@@H](CC(=O)O)C(=O)N[C@@H](CCCCN)C(N)=O)NC(=O)[C@H](Cc2ccc(O)cc2)NC(=O)[C@H](CC(C)C)NC(=O)[C@H](Cc2ccccc2)NC1=O (Ac-MCYKNISTGIFLYCGSGSDYKDDDDK-NH2; disulfide 2-14)?
**A.** Kd (FGF-R3C ECD): > 10000 nM; Kd (FGF-R1C ECD): > 10000 nM
